Measurements taken from patent publication US7582627B2, “3-aminoquinazolin-2,4-dione antibacterial agents” (Warner-Lambert Company, priority 2000, dated 2009).
≈ marks a conversion by molar mass, not a printed value. Where a name gives a salt, the structure may show the parent alone. Read-outs that look alike come from different tables or passages of the source.

Tests used:
E. coli gyrase = biological target: T1, E. coli gyrase (Escherichia coli, UniProt P0AES4+P0AES6); experiment: DNA gyrase supercoiling inhibition assay; type: biochemical
T1 construct: purchased Lucent, Ltd., Leicester, UK
T1 sequence (P0AES4 whole entry, one chain of several): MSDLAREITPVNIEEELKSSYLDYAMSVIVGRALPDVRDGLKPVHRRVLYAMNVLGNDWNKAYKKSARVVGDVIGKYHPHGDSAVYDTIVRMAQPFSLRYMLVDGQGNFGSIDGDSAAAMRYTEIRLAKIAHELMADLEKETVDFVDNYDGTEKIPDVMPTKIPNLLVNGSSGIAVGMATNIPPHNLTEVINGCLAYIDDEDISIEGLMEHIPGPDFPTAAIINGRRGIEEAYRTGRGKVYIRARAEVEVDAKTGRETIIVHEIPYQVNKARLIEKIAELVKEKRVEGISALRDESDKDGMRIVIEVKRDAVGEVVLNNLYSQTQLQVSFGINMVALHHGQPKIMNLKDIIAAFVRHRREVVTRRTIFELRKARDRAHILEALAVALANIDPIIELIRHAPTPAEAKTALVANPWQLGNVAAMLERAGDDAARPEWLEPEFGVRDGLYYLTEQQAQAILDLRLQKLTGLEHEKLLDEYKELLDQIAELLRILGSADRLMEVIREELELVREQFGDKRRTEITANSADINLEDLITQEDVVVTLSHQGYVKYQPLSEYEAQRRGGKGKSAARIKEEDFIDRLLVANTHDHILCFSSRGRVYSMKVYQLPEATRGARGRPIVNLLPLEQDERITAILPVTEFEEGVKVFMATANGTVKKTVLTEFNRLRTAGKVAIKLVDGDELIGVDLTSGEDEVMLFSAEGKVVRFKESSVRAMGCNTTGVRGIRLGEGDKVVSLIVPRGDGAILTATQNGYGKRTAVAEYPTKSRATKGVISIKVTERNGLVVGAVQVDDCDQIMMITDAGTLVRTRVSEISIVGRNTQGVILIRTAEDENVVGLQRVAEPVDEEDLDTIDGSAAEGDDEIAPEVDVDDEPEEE
Description: The effects of invention compounds on the activity of DNA gyrase is determined in the supercoiling inhibition assay, following reaction conditions recommended by the enzyme supplier (Lucent, Ltd., Leicester, UK). Reactions are performed in buffer G (35 mM Tris-HCl (pH 7.5), 24 mM KCl, 4 mM MgCl2, 2 mM DTT, 1.8 mM spermidine, 1 mM ATP, 0.1 mg/mL bovine serum albumin). Relaxed plasmid pBR322 (0.25 μg, Lucent, Ltd., Leicester, UK) is reacted with 1 U E. coli gyrase (Lucent, Ltd., Leicester, UK), in the absence or presence of test compounds, for 30 minutes at 37° C. Reactions are stopped by the addition of SDS and proteinase K to respective final concentrations of 1% and 0.5 mg/mL. After an additional 30 minutes at 37° C., one-tenth volume of 10× loading buffer (0.3% bromophenol blue, 16% Ficoll, 10 mM Na2HPO4) is added, and reactions are loaded onto agarose gels and electrophoresed. The concentration of representative invention compounds of Formula I inhibiting 50% of the supercoiling activity of DNA gyrase is given as an IC50 and recorded in Table 2.

E. faecalis RB1 = experiment: Antibacterial assay, microtitration MIC; type: cell-based; conditions: for MIC: Enterococcus faecalis
Description: (§1) The compounds of the present invention are tested against an assortment of Gram negative and Gram positive organisms using standard microtitration techniques (Cohen et al., Antimicrob. Agents Chemother., 1985; 28:766; Heifetz et al., Antimicrob. Agents Chemother., 1974; 6:124). The results of the evaluation of representative 3-aminoquinazolin-2,4-diones of Formula I are shown in Table 2 and compared to two 3-hydroxyquinazolin-2,4-diones.

S. aureus 29213 = experiment: Antibacterial assay, microtitration MIC; type: cell-based
Description: as §1

E. coli B90 = experiment: Antibacterial assay, microtitration MIC; type: cell-based; conditions: for MIC: Escherichia coli
Description: as §1

E. coli Tol C = experiment: Antibacterial assay, microtitration MIC; type: cell-based; conditions: for MIC: Escherichia coli, read-out: Minimum Inhibitory Concentrations E. coli Tol C
Description: as §1

S. pyogenes C203 = experiment: Antibacterial assay, microtitration MIC; type: cell-based; conditions: for MIC: Streptococcus pyogenes
Description: as §1

E. coli MC4100 = experiment: Antibacterial assay, microtitration MIC; type: cell-based; conditions: for MIC: Escherichia coli
Description: as §1

[1] = supercoiling of relaxed pBR322, 30 minutes at 37° C., read-out: E. coli gyrase IC50
[2] = RB1, read-out: Minimum Inhibitory Concentrations E. faecalis RB1
[3] = Staphylococcus aureus, 29213, read-out: Minimum Inhibitory Concentrations S. aureus 29213
[4] = B90, read-out: Minimum Inhibitory Concentrations E. coli B90
[5] = C203, read-out: Minimum Inhibitory Concentrations S. pyogenes C203
[6] = MC4100, read-out: Minimum Inhibitory Concentrations E. coli MC4100
[7] = RB1, Gram positive, read-out: Minimum Inhibitory Concentrations E. faecalis RB1
[8] = Staphylococcus aureus, 29213, Gram positive, read-out: Minimum Inhibitory Concentrations S. aureus 29213
[9] = B90, Gram negative, read-out: Minimum Inhibitory Concentrations E. coli B90
[10] = C203, Gram positive, read-out: Minimum Inhibitory Concentrations S. pyogenes C203
[11] = MC4100, Gram negative, read-out: Minimum Inhibitory Concentrations E. coli MC4100

Nc1c(F)c(N2CC[C@H](N)C2)c(F)c2c1c(=O)n(N)c(=O)n2C1CC1 [Compound 11, 7-((S)-3-Aminopyrrolidin-1-yl)-1-cyclopropyl-3,5-diamino-6,8-difluoro-1H-quinazoline-2,4-dione hydrochloride]
IC50 (E. coli gyrase; [1]): 11000 nM | MIC (E. faecalis RB1; [2]): 8 µg/mL | MIC (S. aureus 29213; [3]): 8 µg/mL | MIC (E. coli B90; [4]): 0.5 µg/mL | MIC (E. coli Tol C): 0.25 µg/mL | MIC (S. pyogenes C203; [5]): 4 µg/mL | MIC (E. coli MC4100; [6]): 2 µg/mL

Cl.N[C@H]1CCN(c2c(F)cc3c(=O)n(N)c(=O)n(NC4CC4)c3c2F)C1 [Compound 7, 3-Amino-7-[(S)-3-aminopyrrolidin-1-yl]-1-cyclopropylamino-6,8-difluoro-1H-quinazoline-2,4-dione hydrochloride]
IC50 (E. coli gyrase; [1]): 1300 nM | Minimum Inhibitory Concentrations E. faecalis RB1 (E. faecalis RB1; Gram positive): 8.0 µg/mL | Minimum Inhibitory Concentrations S. aureus 29213 (S. aureus 29213; Gram positive): 8.0 µg/mL | Minimum Inhibitory Concentrations E. coli B90 (E. coli B90; Gram negative): 0.5 µg/mL | Minimum Inhibitory Concentrations E. coli Tol C (E. coli Tol C; Gram negative): 0.25 µg/mL | Minimum Inhibitory Concentrations S. pyogenes C203 (S. pyogenes C203; Gram positive): 4.0 µg/mL | Minimum Inhibitory Concentrations E. coli MC4100 (E. coli MC4100; Gram negative): 2.0 µg/mL

N[C@H]1CCN(c2c(F)c(F)c3c(=O)n(N)c(=O)n(C4CC4)c3c2F)C1 [Compound 9, 3-Amino-7-((S)-3-aminopyrrolidin-1-yl)-1-cyclopropyl-5,6,8-trifluoro-1H-quinazoline-2,4-dione hydrochloride]
IC50 (E. coli gyrase; [1]): 3000 nM | MIC (E. faecalis RB1; [2]): 32 µg/mL | MIC (S. aureus 29213; [3]): 16 µg/mL | MIC (E. coli B90; [4]): 1 µg/mL | MIC (E. coli Tol C): 0.5 µg/mL | MIC (S. pyogenes C203; [5]): 16 µg/mL | MIC (E. coli MC4100; [6]): 2 µg/mL

N[C@@H]1[C@H]2CN(c3cc4c(cc3F)c(=O)n(O)c(=O)n4C3CC3)C[C@@H]12 [drawing 284, reference compound]
IC50 (E. coli gyrase; [1]): 900 nM | MIC (E. faecalis RB1; [7]): 4 µg/mL (≈ 12 µM) | MIC (S. aureus 29213; [8]): 4 µg/mL (≈ 12 µM) | MIC (E. coli B90; [9]): 0.25 µg/mL (≈ 0.752 µM) | MIC (E. coli Tol C): 0.25 µg/mL (≈ 0.752 µM) | MIC (S. pyogenes C203; [10]): 2 µg/mL (≈ 6.02 µM) | MIC (E. coli MC4100; [11]): 1 µg/mL (≈ 3.01 µM)

COc1c(N2CC(C(C)N)C(C)(C)C2)c(F)cc2c(=O)n(N)c(=O)n(C3CC3)c12.Cl (centres unmarked)
melting point: 230 °C

COc1c(N2CCCC2)c(F)cc2c(=O)n(N)c(=O)n(C3CC3)c12.Cl
melting point: 92 to 94 °C

COc1c(N2CCC(N)C2)c(F)cc2c(=O)n(N)c(=O)n(C3CC3)c12.Cl (centres unmarked)
melting point: 216 to 218 °C

Cc1c(N2CC3CC3(CN)C2)c(F)cc2c(=O)n(N)c(=O)n(C3CC3)c12.Cl (centres unmarked)
melting point: 189 to 194 °C

CC(C)(N)[C@@H]1CCN(c2nc3c(cc2F)c(=O)n(N)c(=O)n3C2CC2)C1.Cl
melting point: > 260 °C

Cl.N#Cc1c(N2CCC(N)C2)c(F)cc2c(=O)n(N)c(=O)n(C3CC3)c12 (centres unmarked)
melting point: 277 °C

Cl.Nn1c(=O)c2cc(F)c(N3CC4CCNCC4C3)nc2n(C2CC2)c1=O (centres unmarked)
melting point: 200 to 203 °C

COc1c(N2C[C@@H](CN)[C@H](C(F)(F)F)C2)c(F)cc2c(=O)n(N)c(=O)n(C3CC3)c12.Cl (relative stereo)
melting point: 205 to 207 °C

Cl.NCC1CCCN(c2c(F)cc3c(=O)n(N)c(=O)n(C4CC4)c3c2Cl)C1 (centres unmarked)
melting point: 131 to 133 °C

COc1c(N2C[C@@H](CN)[C@H](C)C2)c(F)cc2c(=O)n(N)c(=O)n(C3CC3)c12.Cl (relative stereo)
melting point: 189 °C

CC1CCc2c(N3CC[C@@H]([C@H](C)N)C3)c(F)cc3c(=O)n(N)c(=O)n1c23.Cl (some centres unmarked)
melting point: 197 to 199 °C

Cc1c(N2CCC(N)C2)c(F)cc2c(=O)n(N)c(=O)n(C3CC3)c12.O=C(O)C(F)(F)F (centres unmarked)
melting point: 110 to 112 °C

Cc1c(N2CCC(C(=O)O)C2)c(F)cc2c(=O)n(N)c(=O)n(C3CC3)c12.O=C(O)C(F)(F)F (centres unmarked)
melting point: 226 °C (dec.)

COc1c(N2CC(N)C(F)C2)c(F)cc2c(=O)n(N)c(=O)n(C3CC3)c12.Cl (centres unmarked)
melting point: > 250 °C

NC(=O)C1CCCN(c2c(F)cc3c(=O)n(N)c(=O)n(C4CC4)c3c2Cl)C1 (centres unmarked) [Compound 58, 1-(3-Amino-8-chloro-1-cyclopropyl-6-fluoro-2,4-dioxo-1,2,3,4-tetrahydroquinazolin-7-yl)piperidine-3-carboxylic acid amide]
melting point: 141 to 144 °C

Cc1c(F)c(N2CCC(N)C2)cc2c1c(=O)n(N)c(=O)n2C1CC1.Cl (centres unmarked)
melting point: 238 to 240 °C

Cc1c(N2C[C@@H](CN)[C@H](C)C2)c(F)cc2c(=O)n(N)c(=O)n(C3CC3)c12.Cl (relative stereo)
melting point: 220 °C

COc1c(N2CC3CCCCC3(CN)C2)c(F)cc2c(=O)n(N)c(=O)n(C3CC3)c12.Cl (centres unmarked)
melting point: > 250 °C

CCn1c(=O)n(N)c(=O)c2cc(F)c(N3CC[C@@H](C(C)(C)N)C3)cc21.Cl
melting point: > 250 °C

CC1CCc2c(N3CC[C@H](N)C3)c(F)cc3c(=O)n(N)c(=O)n1c23 (some centres unmarked) (as salt: hydrochloride)
melting point: 202 to 204 °C

Cc1c(N2CC3CCCNC3C2)c(F)cc2c(=O)n(N)c(=O)n(C3CC3)c12.Cl (centres unmarked)
melting point: 220 °C

Cl.N[C@@H]1CN(c2c(F)cc3c(=O)n(N)c(=O)n(C4CC4)c3c2Cl)CC12CC2 [Compound 14, 3-Amino-7-((S)-7-amino-5-azaspiro[2.4]hept-5-yl)-8-chloro-1-cyclopropyl-6-fluoro-1H-quinazoline-2,4-dione hydrochloride]
IC50 (E. coli gyrase): 2400 nM | MIC (E. faecalis RB1; [7]): 8 µg/mL | MIC (S. aureus 29213; [8]): 8 µg/mL | MIC (E. coli B90; [9]): 0.25 µg/mL | MIC (E. coli Tol C): 0.5 µg/mL | MIC (S. pyogenes C203; [10]): 4 µg/mL | MIC (E. coli MC4100; [11]): 4 µg/mL | melting point: 177 to 179 °C

Cc1c(N2CCC(CN)(c3ccccc3)C2)c(F)cc2c(=O)n(N)c(=O)n(C3CC3)c12.Cl (centres unmarked)
melting point: 227 to 231 °C

Cl.N[C@H]1CCN(c2nc3c(cc2F)c(=O)n(N)c(=O)n3C2CC2)C1
melting point: 213 to 215 °C

O=c1c2cc(F)c(N3C[C@@H]4CCCN[C@@H]4C3)cc2n(C2CC2)c(=O)n1O [reference compound]
IC50 (E. coli gyrase; [1]): 5000 nM | MIC (E. faecalis RB1; [7]): 64 µg/mL (≈ 178 µM) | MIC (S. aureus 29213; [8]): 32 µg/mL (≈ 88.8 µM) | MIC (E. coli B90; [9]): 2 µg/mL (≈ 5.55 µM) | MIC (E. coli Tol C): 1 µg/mL (≈ 2.77 µM) | MIC (S. pyogenes C203; [10]): 32 µg/mL (≈ 88.8 µM) | MIC (E. coli MC4100; [11]): 8 µg/mL (≈ 22.2 µM)

COc1c(N2CC[C@H]([C@@H](C)N)C2)c(F)cc2c(=O)n(N)c(=O)n(C3CC3)c12.Cl [Compound 133]
melting point: 228 to 230 °C

Cc1c(N2CC3C(N)C3C2)c(F)cc2c(=O)n(N)c(=O)n(C3CC3)c12.Cl (centres unmarked)
melting point: 180 to 182 °C

Cl.NCC1(Cc2ccccc2)CCN(c2c(F)cc3c(=O)n(N)c(=O)n(C4CC4)c3c2Cl)C1 (centres unmarked)
melting point: 148 to 150 °C

Cl.N[C@@H]1CN(c2c(F)cc3c(=O)n(N)c(=O)n(C4CC4)c3c2Cl)C[C@H]1C(F)(F)F (relative stereo)
melting point: 181 to 183 °C

NC1CCN(c2ccc3c(=O)n(N)c(=O)n(C4CC4)c3c2F)C1.O=C(O)C(F)(F)F (centres unmarked)
melting point: 210 to 212 °C

Cc1c(N2CCCC(CCN)C2)c(F)cc2c(=O)n(N)c(=O)n(C3CC3)c12.Cl (centres unmarked)
melting point: 200 °C

Cc1c(N2CC[C@H]([C@H](C)N)C2)c(F)cc2c(=O)n(N)c(=O)n(C3CC3)c12.Cl
melting point: 192 to 194 °C

COc1c(N2CC(C)C(C(C)N)C2)c(F)cc2c(=O)n(N)c(=O)n(C3CC3)c12.Cl (centres unmarked)
melting point: 204.5 °C

Cc1c(N2CCC(C(C)(C)O)C2)c(F)cc2c(=O)n(N)c(=O)n(C3CC3)c12.Cl (centres unmarked)
melting point: 116 to 120 °C

CN[C@H](C)[C@@H]1CCN(c2nc3c(cc2F)c(=O)n(N)c(=O)n3C2CC2)C1.Cl
melting point: 137 to 139 °C

Cc1c(N2CCC(C)(CN)C2)c(F)cc2c(=O)n(N)c(=O)n(C3CC3)c12.Cl (centres unmarked)
melting point: 210 °C
